In patent publication US6465460B1, “Compositions and methods for prevention and treatment of protozoal disease” (New Ace Research Company, priority 1998, dated 2002):
Each block holds one compound with its values, some of them ahead of it.

Key:
[1] = Repeated daily IV administration of diclazuril in DMSO to the horse DEEP POWDER: plasma levels; assay type: in vivo; conditions: horse 1160 lbs, 0.5 mg/lb (580 mg) in DMSO IV once a day for eight days, sampled 24 hours after each dose, read-out: final steady state plasma concentration of diclazuril
Experimental: The horse, DEEP POWDER, 1160 lbs., in Table 2 above was administered diclazuril at a dose of 0.5 mg/lb. (580 mg) in DMSO IV once a day for eight days. Plasma levels of diclazuril at 24 hours after each dose administration and just before the next day's dosing are represented by the solid circles [drawing 6]
in the above Table 2. Note bow the dose of […] yields a stepwise increasing plasma concentrations of diclazuril, yielding a final steady state plasma concentration of diclazuril of about 10,000 ng/ml.

[2] = assay type: physicochemical
Experimental: Diclazuril has a very low solubility in water (<1×10^−7 at pH 6.5) and can in fact be considered as practically-insoluble in water. A presently preferred plasma drug concentration of about 8 μg/ml for about 25-30 days is needed for the effective treatment of equine protozoan myeloencephalitis (EPM). The oral bioavailability of diclazuril is very low. Thus, a parenteral formulation is desired.
(§1) Sodium salt of diclazuril was dissolved in water. […] The pH of the aqueous solution was 12.4. To this solution, 1N HCl was added dropwise while stirring and the pH at which the solution began to turn cloudy was recorded.

[3] = in vivo; parameters: species or system horse
Experimental: OWENS, (about 1,000 lbs.) received 750 mg of diclazuril powder dissolved in 30 ml of DMSO, intravenously, twice on day one, at zero and zero plus one hours for a total dose of 1,500 mg. Blood samples were drawn at the indicated time points immediately before the next dosing and the solid circles [drawing 4] in FIG. 1 represent plasma concentrations of diclazuril after these administrations. Plasma concentrations of dicalzuril in ng/ml are represented on the vertical axis against time in days on the horizontal axis. […] Concentrations at 72 hr and 96 hr were not included in calculation following IV administration. Area Under the Curve (AUC from 0 to ∞): Intercept-Slope Method [formula] […] Cl=55.26 ml/min. […] ClH=QH. EH EH is lower than 0.3 so diclazuril is found to have low hepatic extraction ratio.

[4] = listed by JANSEEN Research Foundation; cited from earlier work
[5] = pKa of diclazuril; assay type: physicochemical; conditions: aqueous solution of the sodium salt of diclazuril; inferred from pH stability study of the sodium salt; read-out: pKa inferred from precipitation pH
Experimental: (§2) The manufacturer of diclazuril, JANSEEN Research Foundation, listed the pKa of diclazuril to be 5.92 in its physico-chemical characteristics of diclazuril. It can be expected that at pH's above the pKa of the compound (i.e. pH>6), aqueous solution of diclazuril would stay in solution. Preliminary studies were conducted to determine the pH at which sodium salt would precipitate.
as §1

[6] = test system: Babesia equi; conditions: horses treated for piroplasmosis; cited from earlier work
[7] = pH stability of sodium salt of diclazuril (dropwise 1N HCl until cloudy); assay type: physicochemical
Experimental: as §2, §1
This will not cause a problem as there are many drugs on the market that are formulated at higher pHs for exactly the same reason.

concentration at 24 h [1]: ~10000 ng/mL
solubility in water (in words) [2]: completely insoluble in water
level of diclazuril in urine samples [3]: Not detectable
EH (hepatic extraction ratio) ([3]; horse): lower than 0.3
AUC ([3]; horse, iv): 452 µg·h/mL
clearance ([3]; horse, iv): 55.3 mL/min
half-life ([3]; horse, iv): ~48 h
pKa [5]: ~10.5
SMILES: N#CC(c1ccc(Cl)cc1)c1c(Cl)cc(-n2ncc(=O)[nH]c2=O)cc1Cl (stereo not drawn) [diclazuril]
pKa listed by manufacturer [4]: 5.92

SMILES: O=C(Nc1cccc(C2=NCCN2)c1)Nc1cccc(C2=NCCN2)c1 [imidocarb dipropionate]
adverse side effects of treatment [6]: salivation, restlessness, colic and gastrointestinal tract hypermotility

pH at which the solution began to turn cloudy ([7]; 1N HCl added dropwise while stirring, preliminary study): 10.5
pH of the aqueous solution ([7]; sodium salt dissolved in water): 12.4
SMILES: N#CC(c1ccc(Cl)cc1)c1c(Cl)cc(-n2ncc(=O)[n-]c2=O)cc1Cl.[Na+] (stereo not drawn) [sodium salt of diclazuril]
